Experimental data taken from patent US20210332408A1, “SYSTEMS AND METHODS FOR OPTIMIZATION OF ENZYMES” (Vader Nanotechnologies Inc., priority 2020, published 2021).

Test system: bacterial growth
Assay: Maximum PFNA experiment, image processing of bacterial growth (FIG. 6)
Type: cell-based
Conditions: FIG. 6, images at T=0, 10, 80 hrs

## O=C(O)C(F)(F)C(F)(F)C(F)(F)C(F)(F)C(F)(F)C(F)(F)C(F)(F)C(F)(F)F [PFNA Solution, Perfluorononanoic acid (PFNA)]
  bacterial growth with increasing PFNA concentration: slows bacterial growth
